# Assay results published in US20260317344A1, “EGFR INHIBITORS FOR TREATING DISEASE” (BLOSSOMHILL THERAPEUTICS, INC., priority 2023, published 2026).
# What was measured:
# EGFR (L858R) = EGFR (L858R) (Homo sapiens, UniProt P00533, L858R); assay: HotSpot radiometric kinase assay, inhibition of EGFR L858R mutant; format: biochemical; conditions: 33P ATP, room temperature, 120 m
# Experimental: (§1) Biochemical Assays for inhibition of wild-type and mutant EGFRs
# (§2) Briefly, specific kinase/substrate pairs along with required cofactors were prepared in reaction buffer; 20 mM HEPES pH 7.5, 10 mM […], 1 mM EGTA, 0.02% Brij35, 0.02 mg/ml BSA, 0.1 mM Na3VO4, 2 mM DTT, 1% DMSO. Compounds were delivered into the reaction, followed ~20 minutes later by addition of a mixture of ATP (Sigma, St. Louis MO) and ^33P ATP (Perkin Elmer, Waltham MA) to a final concentration of […]. Reactions were carried out at room temperature for 120 m, followed by spotting of the reactions onto P81 ion exchange filter paper (Whatman Inc., Piscataway, NJ). Unbound phosphate was removed by extensive washing of filters in 0.75% phosphoric acid. […] IC50 values and curve fits were obtained using Prism (GraphPad Software).
# EGFR (L858R/T790M) = EGFR (L858R/T790M) (Homo sapiens, UniProt P00533, L858R/T790M); assay: HotSpot radiometric kinase assay, inhibition of EGFR L858R/T790M mutant; format: biochemical; conditions: 33P ATP, room temperature, 120 m
# Experimental: as §1, §2
# EGFR (L858R/T790M/C797S) = EGFR (L858R/T790M/C797S) (Homo sapiens, UniProt P00533, C797S/L858R/T790M); assay: HotSpot radiometric kinase assay, inhibition of EGFR L858R/T790M/C797S mutant; format: biochemical; conditions: 33P ATP, room temperature, 120 m
# How it was run: (§3)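 Kinase/substrate pairs in 20 mM HEPES pH 7.5, 10 mM MgCl2, 1 mM EGTA, 0.02% Brij35, 0.02 mg/ml BSA, 0.1 mM Na3VO4, 2 mM DTT, 1% DMSO, preincubated ~20 min with compound. Reaction started with ATP/33P-ATP ([…]), run 120 min at room temperature; phosphorylation read by P81 filter binding, IC50 from curve fits.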
# EGFR (D746-750) = EGFR (D746-750) (Homo sapiens, UniProt P00533, DEL746-750); assay: HotSpot radiometric kinase assay, inhibition of EGFR 746-750 mutant; format: biochemical; conditions: 33P ATP, room temperature, 120 m
# How it was run: as §3
# EGFR (D746-750/C797S) = EGFR (D746-750/C797S) (Homo sapiens, UniProt P00533, C797S/DEL746-750); assay: HotSpot radiometric kinase assay, inhibition of EGFR 746-750/C797S mutant; format: biochemical; conditions: 33P ATP, room temperature, 120 m
# How it was run: as §3
# EGFR (D770_N771insNPG) = EGFR (D770_N771insNPG) (Homo sapiens, UniProt P00533, INS770NPG); assay: HotSpot radiometric kinase assay, inhibition of EGFR (D770_N771insNPG) mutant; format: biochemical; conditions: 33P ATP, room temperature, 120 m
# How it was run: as §3
# EGFR WT = EGFR WT (Homo sapiens, UniProt P00533); assay: HotSpot radiometric kinase assay, inhibition of EGFR WT; format: biochemical; conditions: 33P ATP, room temperature, 120 m
# Experimental: as §1, §2
# [1] = target: T1, pEGFR, PC-9 cells (d746-750 EGFR) (Homo sapiens, UniProt P00533, DEL746-750); assay: Cellular EGFR phosphorylation assay (LANCE Ultra TR-FRET) in PC-9 cells; format: cell-based; conditions: 4 hours at 37° C., read-out: PC-9 pEGFR IC50
# T1 construct: pEGFR (Tyr1068) TR-FRET
# How it was run: (§4)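 pEGFR Tyr1068 TR-FRET readout, lysates after 4 h compound exposure (37 °C, 5% CO2); 9-dose 3-fold series. A431 only: EGF 40 ng/mL for last 10 min. IC50 from curve fit.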
# [2] = target: T2, pEGFR, NCI-H1975 cells (L858R/T790M EGFR) (Homo sapiens, UniProt P00533, L858R/T790M); assay: Cellular EGFR phosphorylation assay (LANCE Ultra TR-FRET) in NCI-H1975 cells; format: cell-based; conditions: 4 hours at 37° C., read-out: H1975 pEGFR IC50
# T2 construct: pEGFR (Tyr1068) TR-FRET
# How it was run: as §4
# [3] = target: T3, pEGFR, A431 cells (wildtype EGFR) (Homo sapiens, UniProt P00533); assay: Cellular EGFR phosphorylation assay (LANCE Ultra TR-FRET) in A431 cells; format: cell-based; conditions: 4 hours at 37° C., 40 ng/mL EGF for the final 10 minutes, read-out: A431 pEGFR IC50
# T3 construct: pEGFR (Tyr1068) TR-FRET
# How it was run: as §4
# PC-9 cells = assay: 5-Day CellTiter Glo (CTG) cell proliferation assay, PC-9; format: cell-based; conditions: Homo sapiens; PC-9 cells (d746-750 EGFR), 5-day CTG proliferation, 120 hours; read-out: PC-9 IC50
# How it was run: (§5)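 Luminescent ATP signal (CellTiter-Glo 2.0) after 120 hours of compound exposure gave IC50 values. PC-9 and HCC827 harbour EGFR d746-750; NCI-H1975 harbours L858R/T790M.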
# NCI-H1975 cells = assay: 5-Day CellTiter Glo (CTG) cell proliferation assay, NCI-H1975; format: cell-based; conditions: Homo sapiens; NCI-H1975 cells (L858R/T790M EGFR), 5-day CTG proliferation, 120 hours; read-out: H1975 IC50
# How it was run: as §5
# HCC827 cells = assay: 5-Day CellTiter Glo (CTG) cell proliferation assay, HCC827; format: cell-based; conditions: Homo sapiens; HCC827 cells (d746-750 EGFR), 5-day CTG proliferation, 120 hours; read-out: HCC827 IC50
# How it was run: as §5
# [4] = tested on: BaF3 cells with engineered EGFR L858R/T790M/C797S; assay: 3-Day CellTiter Glo (CTG) cell proliferation assay, BaF3 EGFR L858R/T790M/C797S; format: cell-based; conditions: Mus musculus, 3-day CTG proliferation, 72 hours
# How it was run: (§6)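 Viability after 72 h compound exposure (9 concentrations, 37° C, 5% CO2) was measured as ATP luminescence with CellTiter-Glo 2.0 in EGFR-mutant-engineered BaF3 cells plated at one thousand cells per well. IC50 values obtained by curve fitting.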
# [5] = tested on: BaF3 cells with engineered EGFR L858R/C797S; assay: 3-Day CellTiter Glo (CTG) cell proliferation assay, BaF3 EGFR L858R/C797S; format: cell-based; conditions: Mus musculus, 3-day CTG proliferation, 72 hours
# How it was run: as §6
# [6] = tested on: BaF3 cells with engineered EGFR d746-750/T790M; assay: 3-Day CellTiter Glo (CTG) cell proliferation assay, BaF3 EGFR d746-750/T790M; format: cell-based; conditions: Mus musculus; BaF3 EGFR d746-750/T790M cells, 3-day CTG proliferation, 72 hours
# How it was run: as §6
# EGFR (D770_N771insNPG), sequence (P00533 with tags, fused parts or gaps INS770NPG limits assumed): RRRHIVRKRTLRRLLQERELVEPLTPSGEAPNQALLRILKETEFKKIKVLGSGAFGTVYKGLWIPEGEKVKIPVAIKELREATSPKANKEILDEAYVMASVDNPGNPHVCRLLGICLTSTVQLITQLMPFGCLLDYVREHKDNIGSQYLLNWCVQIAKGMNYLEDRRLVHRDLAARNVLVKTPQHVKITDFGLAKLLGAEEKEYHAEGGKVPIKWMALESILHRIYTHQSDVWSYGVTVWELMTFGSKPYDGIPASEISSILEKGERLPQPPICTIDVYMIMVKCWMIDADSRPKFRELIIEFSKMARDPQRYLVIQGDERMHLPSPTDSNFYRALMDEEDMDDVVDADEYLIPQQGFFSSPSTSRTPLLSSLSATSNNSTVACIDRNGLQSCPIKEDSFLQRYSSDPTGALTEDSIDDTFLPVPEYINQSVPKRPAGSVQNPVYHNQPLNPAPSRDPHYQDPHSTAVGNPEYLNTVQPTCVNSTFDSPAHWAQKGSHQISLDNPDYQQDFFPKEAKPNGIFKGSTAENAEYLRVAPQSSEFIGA
# EGFR (D746-750/C797S), sequence (P00533 with tags, fused parts or gaps DEL746-750/C797S): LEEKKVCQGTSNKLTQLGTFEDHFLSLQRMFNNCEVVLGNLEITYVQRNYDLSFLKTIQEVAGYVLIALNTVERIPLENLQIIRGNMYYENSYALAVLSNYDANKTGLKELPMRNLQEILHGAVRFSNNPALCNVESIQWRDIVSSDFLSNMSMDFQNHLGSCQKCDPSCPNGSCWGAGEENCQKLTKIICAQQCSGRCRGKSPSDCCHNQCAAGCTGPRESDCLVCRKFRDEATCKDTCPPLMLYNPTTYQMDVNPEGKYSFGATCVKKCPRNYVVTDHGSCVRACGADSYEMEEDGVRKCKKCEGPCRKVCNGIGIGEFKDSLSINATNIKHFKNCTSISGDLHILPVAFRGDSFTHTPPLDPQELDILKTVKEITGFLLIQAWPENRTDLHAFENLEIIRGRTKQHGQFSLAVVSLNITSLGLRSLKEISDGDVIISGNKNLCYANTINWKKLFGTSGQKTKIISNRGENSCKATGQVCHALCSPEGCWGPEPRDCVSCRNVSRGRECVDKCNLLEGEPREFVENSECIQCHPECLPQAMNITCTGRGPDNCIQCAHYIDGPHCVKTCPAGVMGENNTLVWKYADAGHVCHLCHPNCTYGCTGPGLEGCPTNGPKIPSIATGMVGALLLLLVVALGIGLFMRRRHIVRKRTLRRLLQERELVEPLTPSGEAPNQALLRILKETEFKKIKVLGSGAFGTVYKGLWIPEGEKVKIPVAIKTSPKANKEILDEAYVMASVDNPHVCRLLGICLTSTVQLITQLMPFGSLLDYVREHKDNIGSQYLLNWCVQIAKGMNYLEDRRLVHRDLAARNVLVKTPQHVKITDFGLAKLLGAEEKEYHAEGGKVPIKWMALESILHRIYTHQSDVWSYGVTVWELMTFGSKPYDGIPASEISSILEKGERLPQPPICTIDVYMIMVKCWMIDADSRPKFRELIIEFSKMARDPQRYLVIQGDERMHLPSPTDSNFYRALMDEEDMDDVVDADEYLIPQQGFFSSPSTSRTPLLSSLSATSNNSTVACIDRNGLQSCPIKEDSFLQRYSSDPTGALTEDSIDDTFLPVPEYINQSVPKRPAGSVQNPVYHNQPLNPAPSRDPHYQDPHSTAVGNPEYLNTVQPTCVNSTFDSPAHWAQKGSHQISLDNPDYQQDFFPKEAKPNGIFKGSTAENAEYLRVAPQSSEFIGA
# T3 sequence (P00533 25-1210): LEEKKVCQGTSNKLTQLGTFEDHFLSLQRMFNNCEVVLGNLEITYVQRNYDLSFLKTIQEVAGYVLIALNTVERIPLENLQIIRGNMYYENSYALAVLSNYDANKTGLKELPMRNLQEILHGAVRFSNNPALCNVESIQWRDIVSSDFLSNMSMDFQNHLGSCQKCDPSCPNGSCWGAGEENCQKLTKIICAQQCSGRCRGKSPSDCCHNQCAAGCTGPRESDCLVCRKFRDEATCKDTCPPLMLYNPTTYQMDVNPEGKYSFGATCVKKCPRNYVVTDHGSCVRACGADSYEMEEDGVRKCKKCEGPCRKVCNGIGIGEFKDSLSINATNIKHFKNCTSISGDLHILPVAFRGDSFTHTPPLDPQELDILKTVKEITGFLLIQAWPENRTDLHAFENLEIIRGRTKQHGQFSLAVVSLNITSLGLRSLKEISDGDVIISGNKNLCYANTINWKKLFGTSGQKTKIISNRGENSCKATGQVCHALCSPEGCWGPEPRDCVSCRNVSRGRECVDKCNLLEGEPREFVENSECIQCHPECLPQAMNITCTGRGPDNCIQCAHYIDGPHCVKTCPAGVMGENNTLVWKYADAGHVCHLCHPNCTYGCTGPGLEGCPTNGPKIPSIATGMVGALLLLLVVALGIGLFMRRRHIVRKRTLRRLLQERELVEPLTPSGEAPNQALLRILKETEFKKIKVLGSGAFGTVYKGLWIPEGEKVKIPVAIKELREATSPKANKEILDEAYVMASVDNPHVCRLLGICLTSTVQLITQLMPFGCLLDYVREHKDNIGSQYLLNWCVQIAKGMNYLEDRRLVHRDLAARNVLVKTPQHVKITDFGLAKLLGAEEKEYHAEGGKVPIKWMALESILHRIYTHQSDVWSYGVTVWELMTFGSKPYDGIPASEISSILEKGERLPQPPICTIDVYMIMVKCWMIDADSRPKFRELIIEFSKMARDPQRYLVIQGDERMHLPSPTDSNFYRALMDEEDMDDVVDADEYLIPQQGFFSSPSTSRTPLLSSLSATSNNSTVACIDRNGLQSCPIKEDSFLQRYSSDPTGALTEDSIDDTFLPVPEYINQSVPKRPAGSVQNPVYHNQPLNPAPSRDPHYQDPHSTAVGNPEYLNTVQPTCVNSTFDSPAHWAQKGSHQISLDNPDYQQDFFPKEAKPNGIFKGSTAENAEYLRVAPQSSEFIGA
# EGFR WT, sequence (P00533 25-1210): as above
SMILES,IC50 (EGFR (L858R)),IC50 (EGFR (L858R/T790M)),IC50 (EGFR (L858R/T790M/C797S)),IC50 (EGFR (D746-750)),IC50 (EGFR (D746-750/C797S)),IC50 (EGFR (D770_N771insNPG)),IC50 (EGFR WT),IC50 [1],IC50 [2],IC50 [3],IC50 (PC-9 cells),IC50 (NCI-H1975 cells),IC50 (HCC827 cells),IC50 [4],IC50 [5],IC50 [6]
"CCOc1nn([C@@H](C)CO)c2c1/C=C/c1n[nH]c3cnc(cc13)-c1c(C)nn(C)c1O[C@@H](C)CN(C1CC1)C2 [Ex. 110, (2S)-2-[(10S,17E)-12-cyclopropyl-16-ethoxy-6,8,10-trimethyl-2,8,10,11,12,13-hexahydro-14H-5,3-(azenometheno)tripyrazolo[3,4-f:3′,4′-j:4″,3″-n][1,4]oxazacyclopentadecin-14-yl]propan-1-ol]",0.36 nM,0.5 nM,0.25 nM,0.46 nM,0.56 nM,0.18 nM,0.09 nM,1.12 nM,1.76 nM,1.42 nM,0.47 nM,1.07 nM,0.31 nM,0.71 nM,0.07 nM,0.61 nM
"CCOc1nn(CCO)c2c1/C=C/c1n[nH]c3c(C)nc(cc13)-c1cnn(C)c1O[C@@H](C)CN(C)C2 [Ex. 29, 2-[(10S,17E)-16-ethoxy-8,10,12,20-tetramethyl-2,8,10,11,12,13-hexahydro-14H-5,3-(azenometheno)tripyrazolo[3,4-f:3′,4′-j:4″,3″-30n][1,4]oxazacyclopentadecin-14-yl]ethan-1-ol]",0.72 nM,0.3 nM,0.3 nM,0.2 nM,0.65 nM,0.29 nM,0.22 nM,3.63 nM,0.93 nM,13.7 nM,11.4 nM,1.04 nM,1.12 nM,0.74 nM,0.17 nM,0.9 nM
"CCOc1nn([C@@H](C)CO)c2c1/C=C/c1n[nH]c3c(C)nc(cc13)-c1c(C)nn(C)c1O[C@H](C)[C@H]1CCCN1C2 [Ex. 180, (2S)-2-[(8aR,9R,19E)-1-ethoxy-9,11,13,21-tetramethyl-7,8,8a,9,11,17-hexahydro-6H-14,16-(azenometheno)tripyrazolo[3,4-f:3′,4′-j:4″,3″-n]pyrrolo[2,1-c][1,4]oxazacyclopentadecin-3(4H)-yl]propan-1-ol]",0.15 nM,0.16 nM,0.13 nM,0.21 nM,0.21 nM,0.1 nM,0.05 nM,0.64 nM,1.54 nM,6.08 nM,0.7 nM,0.95 nM,0.34 nM,0.69 nM,0.06 nM,0.57 nM
"CCOc1nn(CCO)c2c1/C=C/c1n[nH]c3cnc(cc13)-c1c(C)nn(C)c1OC[C@@H](C)N(CC)C2 [Ex. 18, 2-[(11R,17E)-16-ethoxy-12-ethyl-6,8,11-trimethyl-2,8,10,11,12,13-hexahydro-14H-5,3-(azenometheno)tripyrazolo[3,4-f:3′,4′-j:4″,3″-n][1,4]oxazacyclopentadecin-14-yl]ethan-1-ol]",0.51 nM,1.11 nM,4.08 nM,0.45 nM,1.32 nM,0.59 nM,0.43 nM,3.24 nM,8.91 nM,15.6 nM,2.14 nM,19.5 nM,0.53 nM,2.46 nM,0.29 nM,1.44 nM
"CCOc1nn(CCO)c2c1/C=C/c1n[nH]c3cnc(cc13)-c1c(C)nn(C)c1O[C@H](C)CN(CC)C2 [Ex. 17, 2-[(10R,17E)-16-ethoxy-12-ethyl-6,8,10-trimethyl-2,8,10,11,12,13-hexahydro-14H-5,3-(azenometheno)tripyrazolo[3,4-f:3′,4′-j:4″,3″-n][1,4]oxazacyclopentadecin-14-yl]ethan-1-ol]",0.52 nM,0.97 nM,2.37 nM,0.31 nM,1 nM,0.59 nM,0.36 nM,1.85 nM,2.63 nM,14.3 nM,2.01 nM,17.5 nM,0.37 nM,1.14 nM,0.22 nM,0.34 nM
"CCOc1nn(CCO)c2c1/C=C/c1n[nH]c3c(C)nc(cc13)-c1c(C)nn(C)c1O[C@@H](C)CN(C)C2 [Ex. 47, 2-[(10S,17E)-16-ethoxy-6,8,10,12,20-pentamethyl-2,8,10,11,12,13-hexahydro-14H-5,3-(azenometheno)tripyrazolo[3,4-f:3′,4′-j:4″,3″-n][1,4]oxazacyclopentadecin-14-yl]ethan-1-ol]",0.2 nM,0.32 nM,0.28 nM,0.43 nM,0.27 nM,0.2 nM,0.18 nM,1.13 nM,1.06 nM,15.2 nM,1.8 nM,1.77 nM,0.57 nM,0.62 nM,0.07 nM,1.5 nM
"CCOc1nn([C@@H](C)CO)c2c1/C=C/c1n[nH]c3c(C)nc(cc13)-c1c(C)nn(C)c1O[C@@H](C)CN(C)C2 [Ex. 54, (2S)-2-[(10S,17E)-16-ethoxy-6,8,10,12,20-pentamethyl-2,8,10,11,12,13-hexahydro-14H-5,3-(azenometheno)tripyrazolo[3,4-f:3′,4′-j:4″,3″-n][1,4]oxazacyclopentadecin-14-yl]propan-1-ol]",0.32 nM,1.04 nM,0.65 nM,0.67 nM,0.48 nM,0.55 nM,0.38 nM,0.67 nM,0.94 nM,10.7 nM,0.78 nM,0.99 nM,0.41 nM,0.55 nM,0.06 nM,0.55 nM
"CCOc1nn(CCO)c2c1/C=C/c1n[nH]c3cnc(cc13)-c1c(C)nn(C)c1OC[C@H](C)N(CC)C2 [Ex. 16, 2-[(11S,17E)-16-ethoxy-12-ethyl-6,8,11-trimethyl-2,8,10,11,12,13-hexahydro-14H-5,3-(azenometheno)tripyrazolo[3,4-f:3′,4′-j:4″,3″-n][1,4]oxazacyclopentadecin-14-yl]ethan-1-ol]",0.62 nM,1.38 nM,4.57 nM,0.66 nM,1.43 nM,0.68 nM,0.45 nM,4.37 nM,5.22 nM,19.8 nM,5.56 nM,27.1 nM,0.88 nM,1.93 nM,0.34 nM,0.66 nM
